{
  "source": "patent US20140187505A1",
  "about": "“Cardiac Glycosides to Treat Cystic Fibrosis and Other IL-8 Dependent Disorders” (priority 2002, published 2014)",
  "key": {"[1]": {"test_system": "guinea-pig heart Na^+-K^+-ATPase", "conditions": "cited from earlier work"}, "[2]": {"conditions": "mobile phase: methanol/water 30:70; cited from earlier work"}, "[3]": {"test_system": "HeLa cervical cancer cells", "assay": "cells", "conditions": "Homo sapiens, 24 h, read-out: IC50 dose for cell death"}, "[4]": {"conditions": "eluent acetonitrile/water 45:55; cited from earlier work"}, "[5]": {"test_system": "Human castration-resistant prostate cancer PC3 cells", "assay": "EMT protein expression in PC3 cells (Western blot)", "format": "cell-based", "conditions": "24 hours, vehicle 100%"}, "[6]": {"test_system": "rat PAIII castration resistant prostate cancer cells", "assay": "EMT mRNA expression in cultured PAIII cells (FPKM)", "conditions": "6 nM Digitoxin, 24 hours"}, "[7]": {"test_system": "IL-8 secretion from cystic fibrosis lung epithelial IB3-1 cells", "conditions": "Homo sapiens, IB3-1, 48 h"}, "PAIII cancer cells": {"test_system": "PAIII cancer cells", "set-up": "species or system Lobund-Wistar rats", "conditions": "rat, in vivo"}, "[8]": {"test_system": "TNFa/NFkB signaling pathway", "assay": "Reverse Phase Protein Microarrays of TNFa/NFkB pathway phosphorylation in IB3-1 cells", "format": "cell-based, human", "conditions": "IC-90 concentrations", "description": "Previously published data have implicated a dysfunctional TNFa/NFkB signaling pathway as responsible for the pro-inflammatory phenotype of the CF lung (Eidelman et al, 2001a). […] IC-90 means a concentration of drug that blocks 90% of IL-8 secretion from the IB3-1 cells. […] (See FIG. 1)."}, "[9]": {"test_system": "IL-6 and CINC1 (rat IL-8 equivalent)", "assay": "Serum IL-6 and CINC1 in rats bearing PAIII tumors", "format": "in vivo", "conditions": "digitoxin 0.03 mg/kg daily for 30 days, serum day 30"}, "[10]": {"test_system": "clear cell renal carcinoma metastatic to the brain and spinal cord", "conditions": "human, in vivo"}, "[11]": {"test_system": "rat PAIII castration-resistant prostate cancer cells", "assay": "MicroRNA expression in cultured PAIII cells (TaqMan, DDCt)", "format": "cell-based", "conditions": "6 nM Digitoxin, 24 hours"}, "[12]": {"test_system": "HeLa cervical cancer cells", "conditions": "human"}, "[13]": {"test_system": "collagen induced arthritis (CIA) mice", "conditions": "mouse, in vivo"}, "[14]": {"test_system": "Cystic Fibrosis IB-3 Lung Epithelial Cells", "assay": "Secretion of proinflammatory mediators from IB-3 cells (ELISA, 24 hours)", "format": "cell-based", "conditions": "Homo sapiens, Epithelial cell"}, "[15]": {"conditions": "for 70 kg man, cited from earlier work"}, "[16]": {"test_system": "rat lungs infected with influenza", "assay": "Cytokines and chemokines in lungs of influenza-infected cotton rats", "format": "in vivo", "conditions": "3, 10 or 30 microgram/kg ip daily, lung harvested day 4", "protocol": "Fifteen standard cotton rats were divided into five groups of three each. […] The rats in the treatment groups were pre-treated on the preceding day with either 3, 10, or 30 micro-g/kg intraperitoneally. […] Each rat was then treated on Day 1 with 100 microliters of Wuhan Strain influenza virus (titer-10^8 TC-IC 50/ml) (IC is […]) by intra-nasal administration to induce lung inflammation.\nThe rats were sacrificed on the last day 4 hrs after treatment.\nPieces of lung was harvested on day 4 and homogenized in PBS by glass-on-glass homogenizer in 1 gram/ml. Samples are frozen on dry ice, and then transferred to −80° C. for analysis. […] Rodents lack IL-8 and instead have GRO/KC and MIP-2. […] GM-CSF was undetectable in the tissue under any conditions."}, "[17]": {"test_system": "PAIII Castration Resistant Prostate Cancer cells", "set-up": "species or system Lobund-Wistar rats", "conditions": "rat, in vivo"}, "[18]": {"conditions": "octanol/water (20 mM TRIS-HCl, pH 7.4), cited from earlier work"}},
  "note": "“And” between values parts separate entries of the source, which are not always exact repeats. Equal entries are not always repeated. Where two headings read alike, the source gives them in different places.",
  "data": [
    {"smiles": "C[C@H]1O[C@@H](O[C@H]2[C@@H](O)C[C@H](O[C@H]3[C@@H](O)C[C@H](O[C@H]4CC[C@@]5(C)[C@H](CC[C@@H]6[C@@H]5CC[C@]5(C)[C@@H](C7=CC(=O)OC7)CC[C@]65O)C4)O[C@@H]3C)O[C@@H]2C)C[C@H](O)[C@@H]1O", "note": "[digitoxin]", "values": [
      {"measurement": "ID50", "setting": "[1]", "value": "0.31 ± 0.03 ×10^−4 mol l^−1"},
      {"measurement": "RM values (lipophilicity, reversed-phase thin layer chromatography)", "setting": "[2]", "value": 1.37},
      {"measurement": "IC50", "setting": "[3]", "value": "~200", "unit": "nM"},
      {"measurement": "K retentions for reversed-phase high pressure liquid chromatography", "setting": "[4]", "value": 3.34},
      {"measurement": "E-Cadherin % Band Intensity", "setting": "[5]; Digitoxin 10 nM", "value": "0%,"},
      {"measurement": "SNAI1 % Band Intensity", "setting": "[5]; Digitoxin 10 nM", "value": "0%,"},
      {"measurement": "Vimentin % Band Intensity", "setting": "[5]; Digitoxin 10 nM", "value": "0%,"},
      {"measurement": "E-Cadherin % Band Intensity", "setting": "[5]; Digitoxin 25 nM", "value": "0%,"},
      {"measurement": "SNAI1 % Band Intensity", "setting": "[5]; Digitoxin 25 nM", "value": "0%,"},
      {"measurement": "Vimentin % Band Intensity", "setting": "[5]; Digitoxin 25 nM", "value": "0%,"},
      {"measurement": "FOXP3 mRNA % change", "setting": "[6]", "value": "−30", "unit": "%"},
      {"measurement": "Hepatocyte Growth Factor mRNA % change", "setting": "[6]", "value": "−50", "unit": "%"},
      {"measurement": "Igf2r mRNA % change", "setting": "[6]", "value": "−40", "unit": "%"},
      {"measurement": "Vimentin mRNA % change", "setting": "[6]", "value": "−10", "unit": "%"},
      {"measurement": "Zeb2 mRNA % change", "setting": "[6]", "value": "−30", "unit": "%"},
      {"measurement": "IC50", "setting": "[7]; read-out: IC50 nmol/L in cells", "value": 0.9, "unit": "nmol/L"},
      {"measurement": "IC50", "setting": "[7]; read-out: IC50 (K50) for spontaneous IL-8 secretion", "value": "~0.9", "unit": "nmol/L"},
      {"measurement": "Diameter of metastatic foci, mm, (median)", "setting": "PAIII cancer cells", "value": 1.76, "unit": "mm"},
      {"measurement": "Number of pleural metastatic foci (median)", "setting": "PAIII cancer cells", "value": 122},
      {"measurement": "Constitutive phosphorylation of IkBalpha and NFkB, p65", "setting": "[8]", "value": "significantly suppressed"},
      {"measurement": "Phosphorylation of IKKalpha", "setting": "[8]", "value": "modestly suppressed"},
      {"measurement": "Serum Interleukin-6 (IL-6)", "setting": "[9]; control 47.9 ± 14.1", "value": "37.0 ± 16.9", "unit": "pg/mL"},
      {"measurement": "Serum CINC1/KC (rat IL-8 equivalent)", "setting": "[9]; control 60.32 ± 20.6", "value": "47.9 ± 14.4", "unit": "pg/mL"},
      {"measurement": "Clinical outcome of one cancer patient", "setting": "[10]", "value": "positive result"},
      {"measurement": "miR467b DDCt, Digitoxin - Vehicle", "setting": "[11]", "value": 20.10},
      {"measurement": "miR-122 DDCt, Digitoxin - Vehicle", "setting": "[11]", "value": 11.005},
      {"measurement": "miR-291a-3p DDCt, Digitoxin - Vehicle", "setting": "[11]", "value": 19.13},
      {"measurement": "miR-347 DDCt, Digitoxin - Vehicle", "setting": "[11]", "value": 4.34},
      {"measurement": "miR-376a DDCt, Digitoxin - Vehicle", "setting": "[11]", "value": "−32.75(↑)"},
      {"measurement": "miR-380-3p DDCt, Digitoxin - Vehicle", "setting": "[11]", "value": 16.57},
      {"measurement": "miR-411 DDCt, Digitoxin - Vehicle", "setting": "[11]", "value": 4.61},
      {"measurement": "miR-667 DDCt, Digitoxin - Vehicle", "setting": "[11]", "value": 7.01},
      {"measurement": "miR-670 DDCt, Digitoxin - Vehicle", "setting": "[11]", "value": "−12.11(↑)"},
      {"measurement": "miR-879 DDCt, Digitoxin - Vehicle", "setting": "[11]", "value": 11.31},
      {"measurement": "Threshold concentration for an increase in cell death", "setting": "[12]", "value": "70 to 100", "unit": "nM"},
      {"measurement": "Incidence of CIA (mice that developed symptoms)", "setting": "[13]", "value": 50, "unit": "%"},
      {"measurement": "Inflammatory focus (pannus-like) in metatarsal-phalangeal joints, histopathology", "setting": "[13]", "value": "absent"},
      {"measurement": "Mean paw thickness", "setting": "[13]", "value": "decreased"},
      {"measurement": "Severity of CIA (mean visual score)", "setting": "[13]", "value": "significant reduction"},
      {"measurement": "activity at 0.01 µM", "setting": "[14]; read-out: ICAM1 secretion, % of Control", "value": 19, "unit": "%"},
      {"measurement": "activity at 0.03 µM", "setting": "[14]; read-out: ICAM1 secretion, % of control", "value": 30, "unit": "%"},
      {"measurement": "activity at 0.01 µM", "setting": "[14]; read-out: IFN-gamma secretion, % of Control", "value": 100, "unit": "%"},
      {"measurement": "activity at 0.03 µM", "setting": "[14]; read-out: IFN-gamma secretion, % of control", "value": 35, "unit": "%"},
      {"measurement": "activity at 0.01 µM", "setting": "[14]; read-out: IL-1-beta secretion, % of Control", "value": 50, "unit": "%"},
      {"measurement": "activity at 0.03 µM", "setting": "[14]; read-out: IL-1-beta secretion, % of control", "value": 50, "unit": "%"},
      {"measurement": "activity at 0.01 µM", "setting": "[14]; read-out: IL-6 secretion, % of Control", "value": 3, "unit": "%"},
      {"measurement": "activity at 0.03 µM", "setting": "[14]; read-out: IL-6 secretion, % of control", "value": 0, "unit": "%"},
      {"measurement": "activity at 0.01 µM", "setting": "[14]; read-out: IL-8 secretion, % of Control", "value": 2, "unit": "%"},
      {"measurement": "activity at 0.03 µM", "setting": "[14]; read-out: IL-8 secretion, % of control", "value": 0, "unit": "%"},
      {"measurement": "activity at 0.01 µM", "setting": "[14]; read-out: IP-10 secretion, % of Control", "value": 100, "unit": "%"},
      {"measurement": "activity at 0.03 µM", "setting": "[14]; read-out: IP-10 secretion, % of control", "value": 100, "unit": "%"},
      {"measurement": "activity at 0.01 µM", "setting": "[14]; read-out: TNFalpha secretion, % of Control", "value": 5, "unit": "%"},
      {"measurement": "activity at 0.03 µM", "setting": "[14]; read-out: TNFalpha secretion, % of control", "value": 0, "unit": "%"},
      {"measurement": "Human toxicity limit", "setting": "[15]", "value": 3036, "unit": "nmol"},
      {"measurement": "Human toxicity limit, Nmol/L = nM", "setting": "[15]", "value": 45.4, "unit": "nM"},
      {"measurement": "Human toxicity limit", "setting": "[15]; ouabain value is lethal dose", "value": ">2.5", "unit": "mg"},
      {"measurement": "GRO/KC in lung", "setting": "[16]", "value": "significant reductions"},
      {"measurement": "IFNγ in lung", "setting": "[16]", "value": "significant reductions"},
      {"measurement": "IL-13 in lung", "setting": "[16]", "value": "No significant changes"},
      {"measurement": "MCP-1 in lung", "setting": "[16]", "value": "significant reductions"},
      {"measurement": "MIP-2 in lung", "setting": "[16]", "value": "significant reductions"},
      {"measurement": "TGFβ in lung", "setting": "[16]", "value": "No significant changes"},
      {"measurement": "TNFa in lung", "setting": "[16]", "value": "significant reductions"},
      {"measurement": "Diameter of metastasis, mm (median)", "setting": "[17]", "value": 0.87, "unit": "mm"},
      {"measurement": "Number of Pleural Metastases (median)", "setting": "[17]", "value": 16},
      {"measurement": "Weight of Primary Tumor, gm (median)", "setting": "[17]", "value": 19.6, "unit": "gm"},
      {"measurement": "P (partition coefficient in octanol/water system)", "setting": "[18]", "value": "670 and 680"},
      {"measurement": "P (partition coefficient in octanol/water system)", "setting": "[18]; listed as Digitoxin", "value": "670.0 ± 105.0"}
    ]}
  ]
}
